Laboratory results: ChEMBL document CHEMBL5614417, “Discovery of AMPs from random peptides via deep learning-based model and biological activity validation” (Eur J Med Chem, 2024)
Where a SMILES comes first, the peptide text is derived from it.

Columns and labels:
Type in all cases: functional
Bacillus subtilis = experiment: Antibacterial activity against Bacillus subtilis ATCC 23857 incubated for 18 hrs by visual inspection method
[1] = system: Staphylococcus epidermidis; experiment: Antibacterial activity against Staphylococcus epidermidis ATCC 12228 incubated for 18 hrs by visual inspection method
Staphylococcus aureus = experiment: Antibacterial activity against Staphylococcus aureus ATCC 25923 incubated for 18 hrs by visual inspection method
Klebsiella pneumoniae = experiment: Antibacterial activity against Klebsiella pneumoniae ATCC 700603 incubated for 18 hrs by visual inspection method
Acinetobacter baumannii = experiment: Antibacterial activity against Acinetobacter baumannii ATCC 19606 incubated for 18 hrs by visual inspection method
Escherichia coli = experiment: Antibacterial activity against Escherichia coli ATCC 25922 incubated for 18 hrs by visual inspection method

Row | Compound | MIC (Bacillus subtilis) | MIC [1] | MIC (Staphylococcus aureus) | MIC (Klebsiella pneumoniae) | MIC (Acinetobacter baumannii) | MIC (Escherichia coli)
1 | CC[C@H](C)[C@H](NC(=O)[C@H](CC(C)C)NC(=O)[C@H](CS)NC(=O)[C@@H]1CCCN1C(=O)[C@H](CC(C)C)NC(=O)[C@@H](NC(=O)[C@H](CS)NC(=O)[C@H](Cc1ccccc1)NC(=O)[C@@H](N)Cc1c[nH]c2ccccc12)[C@@H](C)CC)C(=O)N[C@@H](Cc1ccccc1)C(=O)N[C@@H](CCCCN)C(=O)N[C@@H](Cc1c[nH]c2ccccc12)C(=O)N[C@@H](CCC(N)=O)C(N)=O (H-WFCILPCLIFKWQ-NH2) | > 60 µg/mL | > 60 µg/mL | > 60 µg/mL | > 60 µg/mL | > 60 µg/mL | > 60 µg/mL
2 | CSCC[C@H](NC(=O)[C@H](Cc1c[nH]c2ccccc12)NC(=O)[C@H](CCSC)NC(=O)[C@H](Cc1c[nH]c2ccccc12)NC(=O)[C@@H](NC(=O)[C@H](Cc1c[nH]c2ccccc12)NC(=O)[C@H](Cc1c[nH]c2ccccc12)NC(=O)[C@H](CCSC)NC(=O)[C@H](CCCCN)NC(=O)[C@H](CS)NC(=O)CNC(=O)[C@H](Cc1ccccc1)NC(=O)[C@@H](N)CO)C(C)C)C(N)=O (H-SFGCKMWWVWMWM-NH2) | > 60 µg/mL | > 60 µg/mL | > 60 µg/mL | > 60 µg/mL | > 60 µg/mL | > 60 µg/mL
3 | CC[C@H](C)[C@H](NC(=O)CNC(=O)[C@@H](NC(=O)[C@H](Cc1ccccc1)NC(=O)[C@@H](NC(=O)[C@H](Cc1c[nH]cn1)NC(=O)[C@H](Cc1c[nH]c2ccccc12)NC(=O)[C@@H](NC(=O)[C@@H]1CCCN1)[C@@H](C)O)[C@@H](C)CC)[C@@H](C)CC)C(=O)N[C@@H](Cc1c[nH]c2ccccc12)C(=O)N[C@@H](CO)C(=O)N[C@@H](CS)C(=O)N[C@@H](Cc1c[nH]c2ccccc12)C(N)=O (H-PTWHIFIGIWSCW-NH2) | > 60 µg/mL | > 60 µg/mL | > 60 µg/mL | > 60 µg/mL | > 60 µg/mL | > 60 µg/mL

Continued, values first:

Row | MIC (Bacillus subtilis) | MIC [1] | MIC (Staphylococcus aureus) | MIC (Klebsiella pneumoniae) | MIC (Acinetobacter baumannii) | MIC (Escherichia coli) | Compound
4 | 3.75 µg/mL | 3.75 µg/mL | 1.88 µg/mL | – | – | – | GRAMICIDIN
5 | > 60 µg/mL | > 60 µg/mL | > 60 µg/mL | > 60 µg/mL | > 60 µg/mL | > 60 µg/mL | CC[C@H](C)[C@H](NC(=O)[C@@H](N)Cc1c[nH]c2ccccc12)C(=O)N[C@@H](Cc1c[nH]c2ccccc12)C(=O)N[C@H](C(=O)N[C@@H](Cc1ccccc1)C(=O)N[C@@H](CCCCN)C(=O)N[C@@H](Cc1c[nH]cn1)C(=O)N[C@@H](CC(C)C)C(=O)NCC(=O)N[C@@H](CS)C(=O)N[C@@H](CCC(N)=O)C(=O)N[C@@H](CCCCN)C(=O)N[C@@H](CCC(N)=O)C(N)=O)[C@@H](C)O (H-WIWTFKHLGCQKQ-NH2)
6 | > 60 µg/mL | > 60 µg/mL | > 60 µg/mL | > 60 µg/mL | > 60 µg/mL | > 60 µg/mL | CC[C@H](C)[C@H](NC(=O)[C@H](CCCCN)NC(=O)[C@H](Cc1c[nH]c2ccccc12)NC(=O)[C@H](C)NC(=O)[C@@H]1CCCN1C(=O)[C@H]1CCCN1C(=O)[C@@H](CC(C)C)NC(=O)[C@H](N)C(C)C)C(=O)N[C@@H](CCCCN)C(=O)N[C@@H](CCCCN)C(=O)NCC(=O)N[C@@H](Cc1ccccc1)C(=O)N[C@@H](CCC(N)=O)C(N)=O
7 | > 60 µg/mL | > 60 µg/mL | > 60 µg/mL | > 60 µg/mL | > 60 µg/mL | > 60 µg/mL | CC(C)C[C@H](NC(=O)[C@H](CCCCN)NC(=O)[C@H](CS)NC(=O)[C@H](CS)NC(=O)[C@@H](NC(=O)CNC(=O)[C@@H](NC(=O)[C@H](Cc1ccccc1)NC(=O)[C@H](CCC(N)=O)NC(=O)[C@H](CS)NC(=O)[C@@H](N)Cc1c[nH]c2ccccc12)C(C)C)C(C)C)C(=O)N[C@@H](CS)C(=O)N[C@H](C(N)=O)C(C)C (H-WCQFVGVCCKLCV-NH2)
